The test system of data set [1] is acetylated tubulin in hippocampus. The data set can be described thus: In vivo pharmacodynamics: acetylated tubulin in hippocampus (ELISA). The conditions noted are these: 0.3–300 mg/kg orally, 4 h after administration, C57BL/6J mice. Here is the method: (§1) T-518, ACY-738, Ricolinostat, and Tubastatin A were synthesized in Takeda. For in vitro cellular experiments, the compounds were solubilized with DMSO and diluted in the culture medium at the indicated concentrations. For in vivo experiments, the compound was reconstituted in 0.5% methylcellulose and administered orally at the indicated doses. After administration, mouse hippocampus was isolated and homogenized in RIPA extraction buffer (50 mM Tris–HCl, 150 mM NaCl, 1% NP-40, 0.5% sodium deoxycholate, and 0.1% SDS, pH 8.0) supplemented with protease and phosphatase inhibitor cocktail (Thermo Fischer, Waltham, MA, USA). The homogenate was centrifuged at 10,000g for 15 min and the supernatant was taken as the RIPA-soluble fraction.
Acetylated α-tubulin and total tubulin levels were measured by sandwich ELISA. Ninety six-well plates (Microlite2+, Thermo) were coated with α-tubulin capture antibody (1:100) by overnight incubation at 4 °C, washed 4 times with PBS'T, treated with blocking buffer (1% bovine serum albumin in PBS'T) at 37 °C for 2 h, and washed another 4 times with PBS’T. Cell or tissues lysate was added to the wells and plates were incubated at 37 °C for 2 h. […]
(In general: An ELISA detects its analyte on a solid surface through an enzyme-linked reagent.)

The test system of a further data set is HDAC1‒5, 7‒9, and 11. The data set can be described thus: HDAC selectivity panel (Reaction Biology Corporation). It counts as biochemical. To be noted: up to 10 μM; heat map Fig. 2A.
Data set [2] deals with tubulin acetylation in mouse primary neural cultures. Briefly: Tubulin acetylation in mouse primary neural culture (ELISA). It counts as cell-based. The conditions noted are these: 24 h. As to the method: as §1
Primary cortical neurons were prepared from E14 C57BL/6J mouse embryos (CLIEA Japan, Inc., Tokyo, Japan) using papain-containing Neuron Dissociation Solutions (Fujifilm Wako, Tokyo, Japan). Isolated cells were suspended in Neurobasal Medium containing B-27 (Thermo Fisher) and seeded on poly-D-lysine-coated plates (Corning, NY, USA) under 5% CO2 at 37 °C for 6 days in vitro (DIV) prior to evaluation of HDAC6 inhibitors. Cells were treated with HDAC6 inhibitors at the indicated concentrations for 24 h and lysed in RIPA extraction buffer (50 mM Tris–HCl, 150 mM NaCl, 1% NP-40, 0.5% sodium deoxycholate, and 0.1% SDS, pH 8.0) supplemented with protease and phosphatase inhibitor cocktail (Thermo Fisher).
Acetylated α-tubulin and total tubulin levels were measured by sandwich ELISA. Ninety six-well plates (Microlite2+, Thermo) were coated with α-tubulin capture antibody (1:100) by overnight incubation at 4 °C, washed 4 times with PBS'T, treated with blocking buffer (1% bovine serum albumin in PBS'T) at 37 °C for 2 h, and washed another 4 times with PBS’T. Cell or tissues lysate was added to the wells and plates were incubated at 37 °C for 2 h. Plates were then washed 4 times with PBST, incubated with a detection antibody for acetylated tubulin or total α-tubulin diluted in blocking buffer at 37℃ for 1 h, rewashed 4 more times with PBST, incubated with a mouse secondary antibody conjugated to horseradish peroxidase (HRP) for 30 min, wash 4 times again with PBST, and then incubated with chemiluminescent substrate (SuperSignal).

The next data set relates to P301S tau Tg mice. Briefly: Septohippocampal retrograde axonal transport of Fluoro-Gold in tauopathy model. It counts as in vivo, mouse. To be noted: 3 mg/kg daily for 2 weeks, 5-month-old P301S tau Tg mice. Here is the method: as §1
The integrity of retrograde axonal transport was evaluated by detecting the accumulation of Fluoro-Gold (Fluorochrome, Denver, CO) in the medial septal nucleus after injection into hippocampus (0.5 μL of 5% at AP − 2.3 mm, ML − 2.0 mm, and DV − 2.0 mm relative to bregma). Three days after injection, mice were anesthetized and transcardially perfused with PBS (pH 7.4) followed by 4% paraformaldehyde. […] Fluorescent cells in the medial septum region were counted with Image-Pro Plus software (version 4.5.0.24) (Media Cybernetics, Rockville, MD; https://www.mediacy.com/imageproplus).

The test system of the next data set is experimental mice. Briefly: Tolerability of chronic dosing. It counts as in vivo.
For data set [3], the system named is tubulin acetylation in WT mice or HDAC6 KO mice. The data set can be described thus: HDAC6 dependency of in vivo tubulin acetylation, WT and HDAC6 KO mice. Also noted: species or system mouse. To be noted: 300 mg/kg.
From the text: HDAC6 knockout (KO) mice were generated by deletion of a ~ 1.7-kbp region including exon15–20 of the Hdac6 gene using fertilized C57BL/6J eggs and the CRISPR-Cas9 system. […] Male hemizygous KO mice were selected by qPCR detection of the Hdac6 intron16 sequence (Figure S2A). The qPCR primers and probe sequences were as follows: FW primer; 5′-[…]-3′, RV primer; 5′-[…]-3′ and MGB probe; 5′-CCAGGCCATGTTTT-3′.
as §1
Acetylated α-tubulin and total tubulin levels were measured by sandwich ELISA. […]

On to `O=C1c2cc(-c3nnc(C(F)F)o3)cnc2CN1[C@@H]1CCCC[C@H]1NC(=O)C(F)(F)C(F)(F)F` [T-518, N-[(1R,2R)-2-{3-[5-(difluoromethyl)-1,3,4-oxadiazol-2-yl]-5-oxo-5H,6H,7H-pyrrolo[3,4-b]pyridin-6-yl}cyclohexyl]-2,2,3,3,3-pentafluoropropanamide], for which, in data set [1], the “tubulin acetylation in hippocampi” value is “dose-dependently increased tubulin acetylation”. Moreover, the “inhibition of HDAC1‒5, 7‒9, and 11 in HDAC panel” value with HDAC1‒5, 7‒9, and 11 is “does not inhibit”. Also, the “effect on tubulin acetylation” value in data set [2] (DIV6 mouse primary neural culture, 0.1–10 μM, ELISA) is “significantly and concentration-dependently elevates tubulin acetylation”. Moreover, the “concentration at which elevation of tubulin acetylation is statistically significant” value in data set [2] (mouse neurons) is ≥ 0.1 µM. Also, the “retrograde axonal transport of Fluoro-Gold from hippocampus to medial septal nucleus” value in the data set on P301S tau Tg mice is recorded as “significantly improved axonal transport”. The “tolerability of chronic dosing” value in the data set on experimental mice was “well tolerated”. Also, the “tubulin acetylation in HDAC6 KO mice” value in data set [3] (27-week-old male HDAC6 KO mice) was “had no effect”. Further, in data set [3] (27-week-old male WT mice), the “tubulin acetylation in WT mice” value is reported as “significantly elevated tubulin acetylation”.

Source of the values: publication PMC8322070, “A novel orally active HDAC6 inhibitor T-518 shows a therapeutic potential for Alzheimer’s disease and tauopathy in mice” (Scientific Reports, 2021).
